Assay results: US20170210778A1, “NOVEL COMPOUNDS” (The Provost, Fellows, Foundation Scholars, and the other …, priority 2014, published 2017)
Blank lines part the entries; values can stand above or below the molecule they belong to.

How the values were obtained:
murine NOD1 = biological target: T1, murine NOD1 (Mus musculus, UniProt Q8BHB0); assay: NOD1 functional agonist assay, 293mNOD1-SEAP reporter cells; format: cell-based; details: 293mNOD1 cells, OD above 3*O.D of negative control
T1 construct: expressed in transfected cells; host or cells: HEK293
T1 sequence (Q8BHB0 1-953): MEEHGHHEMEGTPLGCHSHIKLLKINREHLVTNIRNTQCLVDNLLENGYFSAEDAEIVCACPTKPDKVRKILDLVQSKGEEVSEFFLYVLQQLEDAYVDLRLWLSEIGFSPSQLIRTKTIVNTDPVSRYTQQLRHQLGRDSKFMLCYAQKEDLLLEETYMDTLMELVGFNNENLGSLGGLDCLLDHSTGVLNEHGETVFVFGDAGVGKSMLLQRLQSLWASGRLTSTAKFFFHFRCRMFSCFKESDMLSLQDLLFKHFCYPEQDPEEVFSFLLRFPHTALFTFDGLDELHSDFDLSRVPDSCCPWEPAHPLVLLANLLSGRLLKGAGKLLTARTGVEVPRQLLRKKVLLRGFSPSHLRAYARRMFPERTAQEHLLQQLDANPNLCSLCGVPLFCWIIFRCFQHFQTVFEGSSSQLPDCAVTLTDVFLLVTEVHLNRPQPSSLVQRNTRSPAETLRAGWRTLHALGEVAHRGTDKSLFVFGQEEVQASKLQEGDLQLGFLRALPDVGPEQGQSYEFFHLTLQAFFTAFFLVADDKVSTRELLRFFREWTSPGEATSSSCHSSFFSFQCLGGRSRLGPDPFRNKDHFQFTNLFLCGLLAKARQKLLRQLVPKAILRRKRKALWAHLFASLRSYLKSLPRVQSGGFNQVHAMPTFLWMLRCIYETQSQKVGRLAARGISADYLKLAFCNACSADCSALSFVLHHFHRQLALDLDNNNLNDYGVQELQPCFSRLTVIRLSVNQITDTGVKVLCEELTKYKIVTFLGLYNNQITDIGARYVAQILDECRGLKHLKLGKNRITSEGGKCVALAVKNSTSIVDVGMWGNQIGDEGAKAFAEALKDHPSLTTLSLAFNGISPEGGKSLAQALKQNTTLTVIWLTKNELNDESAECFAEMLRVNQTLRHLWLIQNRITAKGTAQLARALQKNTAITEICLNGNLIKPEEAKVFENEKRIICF
Summary of the method: (§1)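 Stably transfected HEK293 cells overexpressing human or murine NOD1 with an NF-κB/AP-1-inducible SEAP reporter; secreted SEAP detected colorimetrically, absorbance read at 620/655 nm. Value is the lowest concentration giving mean OD above 3× the endotoxin-free water negative control; parental 293 SEAP cells lacking NOD1 served as counter-control.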

human NOD1 = biological target: T2, human NOD1 (Homo sapiens, UniProt Q9Y239); assay: NOD1 functional agonist assay, 293hNOD1-SEAP reporter cells; format: cell-based; details: 293hNOD1 cells, OD above 3*O.D of negative control
T2 construct: expressed in transfected cells; host or cells: HEK293
T2 sequence (Q9Y239 1-953): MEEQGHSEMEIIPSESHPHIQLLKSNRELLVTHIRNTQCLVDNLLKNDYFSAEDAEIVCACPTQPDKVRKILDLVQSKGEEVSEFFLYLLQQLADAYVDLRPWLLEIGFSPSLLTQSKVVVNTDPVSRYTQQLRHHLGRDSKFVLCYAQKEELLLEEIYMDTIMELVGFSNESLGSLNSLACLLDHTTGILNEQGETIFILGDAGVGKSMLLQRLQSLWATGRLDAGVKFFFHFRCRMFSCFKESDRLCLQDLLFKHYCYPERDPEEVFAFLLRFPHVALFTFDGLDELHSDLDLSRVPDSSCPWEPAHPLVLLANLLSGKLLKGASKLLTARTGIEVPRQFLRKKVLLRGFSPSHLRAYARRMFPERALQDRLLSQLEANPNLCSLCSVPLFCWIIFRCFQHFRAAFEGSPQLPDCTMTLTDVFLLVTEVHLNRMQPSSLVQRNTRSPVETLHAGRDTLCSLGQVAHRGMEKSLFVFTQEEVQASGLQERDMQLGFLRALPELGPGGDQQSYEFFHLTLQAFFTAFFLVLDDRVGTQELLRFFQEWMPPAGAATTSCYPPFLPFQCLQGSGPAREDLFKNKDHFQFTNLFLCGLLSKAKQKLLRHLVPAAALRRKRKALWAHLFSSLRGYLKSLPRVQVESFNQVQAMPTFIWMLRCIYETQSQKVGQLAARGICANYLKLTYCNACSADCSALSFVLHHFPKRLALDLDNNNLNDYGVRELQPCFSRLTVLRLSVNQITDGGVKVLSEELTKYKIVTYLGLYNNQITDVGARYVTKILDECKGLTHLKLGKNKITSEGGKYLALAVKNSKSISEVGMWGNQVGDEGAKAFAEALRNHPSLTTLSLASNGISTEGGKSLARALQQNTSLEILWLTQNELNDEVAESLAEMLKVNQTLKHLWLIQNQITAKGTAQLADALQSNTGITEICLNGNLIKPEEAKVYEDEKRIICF
Summary of the method: as §1

[1] = tested on: LPM in the peritoneal cavity; assay: Numbers of LPM in the peritoneal cavity after i.p. injection; format: in vivo; details: injected i.p. into mice; FIG. 1B
PEC = assay: IL-10 production by PEC in vitro; format: cell-based; details: 24 h stimulation, FIG. 1A
EAE in C57BL/6 mice = assay: Experimental Autoimmune Encephalomyelitis (EAE) model; format: in vivo; details: for EAE-associated weight loss / clinical course of EAE: treated mice, FIG. 1C
From the text: EAE is induced in C57BL/6 mice by immunization with an emulsion of MOG35-55 or MOG1-125 in complete Freund's adjuvant (CFA), followed by administration of pertussis toxin (PT) in PBS, first on the day of immunization and then again the following day.

DSS-induced colitis = assay: Dextran Sulfate Sodium (DSS)-induced colitis mouse model; format: in vivo, mice; details: 2% DSS in drinking water 7 days; 25 μg i.p. on days 0, 1, 2, 4 and 6; FIG. 3
Protocol: As provides in FIG. 3, mice were given water or 2% DSS in their drinking water for 7 days and were treated i.p. with either PBS, vehicle or 25 μg compound of Example 29 (Ex.29) on days 0, 1, 2, 4 and 6 of the experiment. (3A) Body weights were recorded daily. (3B) Mice were sacrificed on day 7 and colon lengths were measured (mean±SE; n=6). (3C) Total mRNA were extracted from the colons on day 7 and the relative expression (RE) of the M2 macrophage markers Relma, and the M1 macrophage markers Ptgs2 (Cox2) and Nos2 were quantified by qPCR (mean±SE; n=6). *, P<0.05; and **, P<0.01 versus DSS+vehicle treated mice.

[2] = tested on: DSS-induced inflammation in the colon; assay: DSS-induced inflammation in the colon model; format: in vivo, mice; details: 2% DSS in drinking water 7 days; 25 μg i.p. on days 0, 1, 2, 4 and 6; FIG. 4
Protocol: Mice were given water or 2% DSS in their drinking water for 7 days and were treated i.p. with either PBS, vehicle or 25 μg compound of Example 29 (Ex.29) on days 0, 1, 2, 4 and 6 of the experiment. Mice were sacrificed on day 7 and colon sections were prepared and stained with H&E.
Arrows indicate areas of severe inflammatory pathology.

hNOD2 = biological target: T3, hNOD2 (Homo sapiens, UniProt Q9HC29); assay: NOD2 functional agonist assay, 293hNOD2-SEAP reporter cells; format: cell-based; details: 293hNOD2 cells, OD above 3*O.D of negative control
T3 construct: expressed in transfected cells; host or cells: HEK293
T3 sequence (Q9HC29 whole entry): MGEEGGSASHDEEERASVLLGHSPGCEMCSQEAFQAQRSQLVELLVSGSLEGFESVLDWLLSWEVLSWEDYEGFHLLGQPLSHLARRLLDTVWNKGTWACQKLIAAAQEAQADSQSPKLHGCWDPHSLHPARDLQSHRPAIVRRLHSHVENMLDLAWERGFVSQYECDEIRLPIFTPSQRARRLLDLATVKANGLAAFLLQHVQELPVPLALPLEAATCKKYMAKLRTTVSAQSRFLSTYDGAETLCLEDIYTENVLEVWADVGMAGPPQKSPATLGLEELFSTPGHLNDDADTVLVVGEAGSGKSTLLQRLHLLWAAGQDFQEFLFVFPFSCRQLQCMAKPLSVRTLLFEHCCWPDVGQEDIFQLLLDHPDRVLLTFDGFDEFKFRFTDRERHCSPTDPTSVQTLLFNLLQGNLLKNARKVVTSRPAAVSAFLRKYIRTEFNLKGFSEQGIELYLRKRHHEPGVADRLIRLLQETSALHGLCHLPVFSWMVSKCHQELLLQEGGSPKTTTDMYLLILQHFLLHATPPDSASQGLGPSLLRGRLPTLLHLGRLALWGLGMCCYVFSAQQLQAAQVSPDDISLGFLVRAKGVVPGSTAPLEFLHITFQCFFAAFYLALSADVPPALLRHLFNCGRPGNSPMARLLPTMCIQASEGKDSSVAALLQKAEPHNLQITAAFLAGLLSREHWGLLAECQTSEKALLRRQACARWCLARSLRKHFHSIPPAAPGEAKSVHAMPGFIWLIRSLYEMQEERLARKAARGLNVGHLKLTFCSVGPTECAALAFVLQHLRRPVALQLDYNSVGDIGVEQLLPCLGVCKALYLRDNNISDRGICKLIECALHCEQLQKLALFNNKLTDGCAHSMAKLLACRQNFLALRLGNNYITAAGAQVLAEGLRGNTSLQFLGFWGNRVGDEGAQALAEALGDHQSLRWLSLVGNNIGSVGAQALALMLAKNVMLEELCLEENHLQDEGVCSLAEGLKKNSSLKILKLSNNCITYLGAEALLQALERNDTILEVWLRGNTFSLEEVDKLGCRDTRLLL
From the text: HEK293 cells were stably transfected with plasmid for the overexpression of the NOD2 genes and a reporter plasmid expressing a secreted embryonic alkaline phosphatase (SEAP) gene under the control of a promoter inducible by the transcription factors NF-κB and AP-1. These cells are referred herein as 293hNOD2-SEAP. Upon NOD2 stimulation, these cells induce the activation of NF-κB and AP-1 and subsequently the secretion of SEAP. The reporter protein is easily detectable and measurable when using QUANTI-Blue™ (InvivoGen, San Diego, Calif.), a medium that turns purple/blue in the presence of SEAP.
The biological activity of the compounds using 293hNOD2 cells. SEAP expression was measured using the commercially available SEAP detection kit (HEK-Blue™ Detection, InvivoGen). The SEAP activity in cells was quantified using the microplate reader (FLUOStar OPTIMA, BMG laboratories), the absorbance values were read using filter with excitation at 620 nm and emission at 655 nm. The results provided in Table 3 were expressed as the concentration were a significant mean optical density (OD) can be observed (above 3*O.D of negative control) as the mean optical density. As a positive control, the NOD2 pathway was stimulated with commercially available MDP (InvivoGen) and M-triDAP (InvivoGen). As a negative control endotoxin-free water was used. Additionally, 293 cells expressing the SEAP gene but not the NOD2 gene were used as a control.

mNod1: concentration where a significant mean optical density (OD) can be observed (murine NOD1): 0.01 µg/mL
hNod1: concentration where a significant mean optical density (OD) can be observed (human NOD1): 0.01 µg/mL
Structure (SMILES): CCCCCCC(=O)N[C@H](CCC(=O)N[C@H](CSC[C@H](N)C(=O)O)C(=O)N[C@H](C)C(=O)O)C(=O)O [Example 15, N^5-((S)-3-(((R)-2-amino-2-carboxyethyl)thio)-1-(((R)-1-carboxyethyl)amino)-1-oxopropan-2-yl)-N^2-heptanoyl-D-glutamine]
numbers of LPM in the peritoneal cavity [1]: significantly increased
production of IL-10 by PEC (PEC): induced the production of significant concentrations of IL-10
EAE attenuation in WT mice (EAE in C57BL/6 mice; WT mice, FIG. 2): significantly attenuated
onset of EAE (EAE in C57BL/6 mice; treated IL-10−/− mice versus untreated WT or IL-10−/− mice, FIG. 2): slightly later onset
mice that developed EAE (EAE in C57BL/6 mice; treated IL-10−/− mice, FIG. 2): 100%
mice with any symptoms of EAE (EAE in C57BL/6 mice; treated WT mice, FIG. 2): one of 6
EAE-associated weight loss (EAE in C57BL/6 mice): prevented associated weight loss
clinical course of EAE (EAE in C57BL/6 mice): significantly attenuated

Structure (SMILES): CCCCCCCCCCCCCC(=O)N[C@@H](C)C(=O)N[C@H](CCC(=O)N[C@H](CSC[C@H](N)C(=O)O)C(=O)NCC(=O)O)C(=O)O [Example 29, N^5-((S)-3-(((R)-2-amino-2-carboxyethyl)thio)-1-((carboxymethyl)amino)-1-oxopropan-2-yl)-N^2-(tetradecanoyl-L-alanyl)-D-glutamine]
mNod1: concentration where a significant mean optical density (OD) can be observed (murine NOD1): 0.001 µg/mL
hNod1: concentration where a significant mean optical density (OD) can be observed (human NOD1): 0.0001 µg/mL
numbers of LPM in the peritoneal cavity [1]: significantly increased
production of IL-10 by PEC (PEC): induced the production of significant concentrations of IL-10
EAE-associated weight loss (EAE in C57BL/6 mice): prevented associated weight loss
clinical course of EAE (EAE in C57BL/6 mice): significantly attenuated
protection against DSS-induced colitis (DSS-induced colitis): protects mice against DSS-induced colitis
protection against DSS-induced inflammation in the colon [2]: protects mice against DSS-induced inflammation in the colon

Structure (SMILES): CC(=O)N[C@H]1[C@@H](OCc2ccccc2)O[C@H](CO)[C@@H](O)[C@@H]1O[C@H](C)C(=O)N[C@@H](C)C(=O)N[C@H](CCC(=O)N[C@H](CSC[C@H](N)C(=O)O)C(=O)N[C@H](C)C(=O)O)C(=O)O [Example 33, N2-(((R)-2-(((2S,3R,4R,5S,6R)-3-acetamido-2-(benzyloxy)-5-hydroxy-6-(hydroxymethyl)tetrahydro-2H-pyran-4-yl)oxy)propanoyl)-L-alanyl)-N^5-((S)-3-(((R)-2-amino-2-carboxyethyl)thio)-1-(((R)-1-carboxyethyl)amino)-1-oxopropan-2-yl)-D-glutamine]
mNod1: concentration where a significant mean optical density (OD) can be observed (murine NOD1): 1 µg/mL
hNod1: concentration where a significant mean optical density (OD) can be observed (human NOD1): 1 µg/mL
hNod2: concentration where a significant mean optical density (OD) can be observed (hNOD2): 1 µg/mL
